In patent US7067146B2, “Food compositions and methods of preparing the same” (Eritocap Oy, priority 1999, dated 2006):

How the values were obtained:
[1] = tested on: cholesterol in blood serum; settings: Merck Index, 12th Edition; cited from earlier work
Solubility = assay type: physicochemical
[2] = tested on: cholesterol in blood serum; assay: Blood serum cholesterol reduction by eritadenine; assay type: in vivo, human
Text: As regards the therapeutic action of eritadenine it should be noted that it acts endogenously in a dose-dependent manner and can be used as a functional food component in small doses for reducing the total cholesterol of normal human beings. By contrast, existing methods provide for food components having an exogenous effect on the cholesterol balance and these dietary components therefore have to be used in extremely large doses in comparison to eritadenine. […] The present invention makes it possible to produce a functional food component which acts in a druglike manner influencing human phospholipidic metabolic step sequences, still preserving the true features of a functional food component. As mentioned above, eritadenine has the additive effects of not only dose-dependent, endogenous cholesterol-depression but also therapeutic effects like endogenous linoleic acid formation and blood plasma viscosity reduction.
It acts in a drug-like manner, inhibiting the endogenous synthesis of cholesterol metabolism and the enterohepatic fat circle. d-eritadenine is effective in very low absorbed doses, at 1 ppm+-level, ensuring safety and essential metabolic step preservation.
Thus, the addition of eritadenine, especially d-eritadenine, to an exogenously acting existing functional food will more than double the cholesterol-depressing effect due to enterohepatic and exterohepatic multiplicatory effects. Mathematically consecutive 10% reductions would give […] total reduction, and consecutive 15% reductions would give 28% total reduction, by the present invention, due to the feedback inhibition created by the simultaneous exogenous and endogenous actions of the food components, a greater decrease of the cholesterol level will be achieved. The food compositions according to the present invention may therefore comprise a (conventional) food component having an exterohepatic cholesterol depressing effect. Such a food component can be selected from the group of fibers, chitosan, tocotrienols, plant sterols, stanol esters and sitostanol esters. […]

SAH hydrolase = SAH hydrolase (Homo sapiens, UniProt P23526)
Text: It is possible to achieve favourable changes in the blood plasma cholesterol pattern by reducing the molar ratio of total cholesterol/phospholipid ratio and/or changing the phospolipid molar ratio of PC/PE and/or inhibiting enzymatically controlled reactions where PC and PE is directly or indirectly via the SAM/SAH cycle involved. The following theory has been formulated: • Step 1: Total PL and PL (phospholipids) composition may be changed by kinetics of the SAM and SAH cycle. • Step 2: SAM and SAH concentrations are inhibited/stimulated by intervening in the methionine and cysteine metabolism • Step 3: In this metabolism SAH degradation to adenosine and homocysteine is an enzymatic reaction catalysed by SAH hydrolase. By inhibiting partially, not totally, SAH hydrolase, the concentration of SAH will rise affecting the SAM/SAH ratio and step 1 will be executed.
Eritadenine has been tested for use in the above model.

Chain of SAH hydrolase (P23526 whole entry): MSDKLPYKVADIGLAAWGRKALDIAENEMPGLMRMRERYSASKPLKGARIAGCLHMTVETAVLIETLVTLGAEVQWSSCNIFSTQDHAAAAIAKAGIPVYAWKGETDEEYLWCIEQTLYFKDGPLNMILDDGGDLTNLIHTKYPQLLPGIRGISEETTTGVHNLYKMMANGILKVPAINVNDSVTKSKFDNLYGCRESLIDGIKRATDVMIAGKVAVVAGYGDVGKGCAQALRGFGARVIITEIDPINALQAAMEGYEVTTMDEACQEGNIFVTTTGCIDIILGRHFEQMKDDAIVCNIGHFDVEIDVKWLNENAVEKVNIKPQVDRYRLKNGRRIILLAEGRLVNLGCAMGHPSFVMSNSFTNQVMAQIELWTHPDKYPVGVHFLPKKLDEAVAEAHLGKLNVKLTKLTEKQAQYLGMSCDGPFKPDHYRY

Compound | effect on concentration of cholesterol in blood serum [1] | solubility in fats (Solubility) | reduction of cholesterol ([2]; 5 to 50 mg as dose response, depending on the dietary cholesterol amount) [%] | effective absorbed dose level ([2]; absorbed dose) [ppm] | relative efficiency among eritadenine isomers ([2]; compared with l-eritadenine (2S,3S) and threo isomers) | dose needed for SAH hydrolase inhibition (SAH hydrolase) | extent of SAH hydrolase inhibition (SAH hydrolase) | speed of SAH hydrolase inhibition (SAH hydrolase)
Nc1ncnc2c1ncn2C[C@@H](O)[C@@H](O)C(=O)O [Eritadenine] | capable of reducing the concentration of cholesterol in blood serum | soluble in fats | – | – | – | – | – | –
Nc1ncnc2c1ncn2C[C@@H](O)[C@@H](O)C(=O)O [d-eritadenine, 2(R), 3(R)-dihydroxy-4-(9-adenyl)butyric acid] | – | – | > 20 | ≥ 1 | most efficient | inhibits already in small doses | inhibits partially, no total blocking | rapid
